Patent US5736380A, “Maltose-trehalose converting enzyme, and preparation and uses thereof” (Kabushiki Kaisha Hayashibara Seibutsu Kagaku Kenkyujo, priority 1993, dated 1998)
Entries after “also recorded” stand apart in the source; their conditions may differ. Where a name gives a salt, the structure may show the parent alone.

Columns and labels:
[1] = biological target: T1, maltose-trehalose converting enzyme derived from Thermus aquaticus (ATCC 33923) (Thermus thermophilus, UniProt O06458); test: Inhibition of enzyme activity; type: biochemical; conditions: one mM Cu^++ or Hg^++, 50 mM Tris-HCl buffer
T1 construct: The culture obtained in Experiment 15 was centrifuged to obtain an about 0.28 kg of wet cells; endogenous in cells; host or cells: Thermus aquaticus (ATCC 33923), enzyme purified from the disrupted wild-type cells
T1 sequence (O06458 1-963): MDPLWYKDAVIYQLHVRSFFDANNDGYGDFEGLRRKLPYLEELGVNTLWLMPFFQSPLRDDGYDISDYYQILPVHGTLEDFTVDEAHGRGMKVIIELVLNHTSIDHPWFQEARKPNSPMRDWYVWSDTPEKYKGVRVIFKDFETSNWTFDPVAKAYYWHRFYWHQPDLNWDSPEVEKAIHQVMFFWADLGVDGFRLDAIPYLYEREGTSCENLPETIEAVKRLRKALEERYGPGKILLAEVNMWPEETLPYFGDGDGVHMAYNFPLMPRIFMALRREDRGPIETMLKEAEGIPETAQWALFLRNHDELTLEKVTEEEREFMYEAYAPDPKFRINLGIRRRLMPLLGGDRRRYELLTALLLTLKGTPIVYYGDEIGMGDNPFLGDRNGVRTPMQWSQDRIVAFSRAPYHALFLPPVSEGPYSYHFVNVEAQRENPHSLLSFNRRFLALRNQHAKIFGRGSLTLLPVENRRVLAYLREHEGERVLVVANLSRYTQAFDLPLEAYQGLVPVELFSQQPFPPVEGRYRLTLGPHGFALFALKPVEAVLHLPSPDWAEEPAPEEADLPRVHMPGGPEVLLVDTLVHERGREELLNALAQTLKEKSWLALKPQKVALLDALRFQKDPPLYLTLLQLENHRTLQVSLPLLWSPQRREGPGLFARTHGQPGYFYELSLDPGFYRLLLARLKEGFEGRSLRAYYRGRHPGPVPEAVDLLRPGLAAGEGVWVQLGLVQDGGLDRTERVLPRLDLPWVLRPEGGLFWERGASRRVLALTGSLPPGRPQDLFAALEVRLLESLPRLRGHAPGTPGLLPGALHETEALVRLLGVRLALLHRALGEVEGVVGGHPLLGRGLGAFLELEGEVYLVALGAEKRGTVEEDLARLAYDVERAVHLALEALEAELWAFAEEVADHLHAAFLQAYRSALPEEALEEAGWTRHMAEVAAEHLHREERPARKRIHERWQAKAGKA
Experimental: (§1) The activity of the present maltose-trehalose converting enzyme is assayed as follows: One ml of an enzyme solution is added to one ml of 20 w/v % maltose as a substrate in 10 mM phosphate buffer (pH 7.0), and the mixture solution is incubated at 25° C., 35° C. or 60° C. for 60 min, followed by the heating the solution at 100° C. for 10 min to suspend the enzymatic reaction. To the resultant reaction mixture is precisely diluted by 11-fold with 50 mM phosphate buffer (pH 7.5), and 0.4 ml of the diluted solution is admixed with 0.1 ml of a trehalase solution having one unit/ml of trehalase. The resultant solution is incubated at 45° C. for 120 min, followed by determining the amount of glucose by the glucose-oxidase method. As a control, by using trehalase and an enzyme solution, which were preheated at 100° C. for 10 min to inactivate the enzyme, the activity of the enzyme solution is assayed similarly as above. With the above assay, the content of trehalose, formed by the present maltose-trehalose converting enzyme, is determined based on the amount of glucose formed, and one unit activity of the enzyme is defined as the amount of enzyme which forms one μmole of trehalose per minute. As regards to the reaction temperature, it is set to 25° C. for the enzyme of a microorganism of the genus Pimelobacter; 35° C. for that of the genus Pseudomonas; and 60° C. for that of the genus Thermus.
Effects of temperature and pH on the activity of the present enzyme were studied in accordance with the method as used for assaying the enzyme activity. […] The thermal stability of the enzyme was determined by incubating it in 50 mM phosphate buffers (pH 7.0) in test tubes at different temperatures for 60 min, cooling the test tubes with cold water, and assaying the residual enzyme activity in each buffer. The pH stability of the enzyme was determined by incubating it in 50 mM phosphate buffers having different pHs at 60° C. for 60 min, adjusting the resultant buffers to pH 7.0, and assaying the residual enzyme activity in each buffer.

[2] = tested on: maltose-trehalose converting enzyme; test: Inhibition of activity of the present enzyme; type: biochemical, microorganisms; conditions: one mM Cu^++, Hg^++ and Tris-HCl buffer
Experimental: as §1, with “The resultant solution is incubated at 45° C. for 120 min, followed by determining the amount of glucose by the glucose-oxidase method.” left out, “With the above assay, the content of trehalose, formed by the present maltose-trehalose converting enzyme, is determined based on the amount of glucose formed, and one unit activity of the enzyme is defined as the amount of enzyme which forms one μmole of trehalose per minute.” left out

Row | Structure (SMILES) | Inhibition of activity [1] | Inhibition of activity [2]
1 | [Hg+2] [Hg^++] | inhibited; also recorded: inhibitory | inhibited
2 | [Cu+2] [Cu^++] | inhibited; also recorded: inhibitory | inhibited
3 | NC(CO)(CO)CO [Tris-HCl buffer] | inhibited; also recorded: inhibitory | inhibited
